Where two headings read alike, the source gives them in different places. Blank lines part the entries; values can stand above or below the molecule they belong to.
Columns and labels:
Male Sprague-Dawley Rats [1] = experiment: Nephrotoxicity of non-deuterated D-serine at 300 mg/kg PO (Example 2); format: in vivo
Procedure: (§1) The hippocampus, cortex and plasma were collected and analyzed. Additional blood was collected and were analyzed for the full clinical chemistry profile. Urine was also collected and examined for glucose and total protein. […] The mean plasma, hippocampus, and cortex concentration at 1 hour are 19200 ng/mL, 674 ng/g, and 754 ng/g; respectively. The mean plasma, hippocampus, and cortex concentrations at 8 hours were 11250 ng/mL, 17725 ng/g, and 11875 ng/g, respectively. […] Blood urea nitrogen and creatinine levels were elevated.

[2] = Pharmacokinetics dose response of non-deuterated D-serine, 30-300 mg/kg PO (Example 4); format: in vivo, male Sprague-Dawley rats; settings: plasma; for Cmax / AUC(0-inf): (CV %)
Source text: (§2) The pharmacokinetic profile of non-deuterated D-serine was investigated in male Sprague-Dawley rats. […] Plasma was collected and analyzed for the non-deuterated D-serine. Additional blood was collected and analyzed for the full clinical chemistry profile.

rats = experiment: Nephrotoxicity comparison at doses from 150 mg/kg to 750 mg/kg (dose escalation, FIGS. 7-10); format: in vivo; settings: for changes in BUN or creatinine: PO doses from 150 mg/kg to 750 mg/kg
[3] = Pharmacokinetics of deuterated and non-deuterated D-serine, PO 10 mg/kg (Example 5); format: in vivo, male Sprague Dawley rats; settings: male, Sprague Dawley, rat, plasma, 0.5% Methylcellulose
Procedure: Three rats were used for each group. Blood was collected at the following time points: for IV dosing: pre-dose, 0.05, 0.167, 0.5, 1, 2, 4, 6, 8 and 12 hours post-dose; for PO dosing: pre-dose, 0.25, 0.5, 1, 2, 4, 6, 8 and 12 hours post-dose PO. Urine was collected at pre-dose (minimum 12 hours), 0-6, 6-12 and 12-24 hours. Plasma samples were analyzed and quantified for dosed compound LC-MS/MS.

[4] = target: T1, human NMDAR subunits GluN1 and GluN2A (Homo sapiens, UniProt Q05586); experiment: NMDA receptor activation in automated patch clamp system (ScreenPatch); format: cell-based; settings: HEK293 cells, 0.003 to 10 μM, Compound 100 versus d-serine
T1 construct: expressed in transfected cells; host or cells: HEK293
Procedure: Peak current and steady state current were measured. The activity at the NMDA receptor was indistinguishable for the two compounds.

Male Sprague-Dawley Rats [5] = experiment: Nephrotoxicity dose response of non-deuterated D-serine, 30-300 mg/kg PO (Example 4); format: in vivo; settings: 24 hr samples at the 150 and 300 mg/kg doses, compared to control and reference values
Source text: as §2

Male Sprague-Dawley Rats [6] = experiment: Nephrotoxicity of Compound 100 and non-deuterated D-serine at 150 mg/kg PO (Example 3); format: in vivo
Source text: (§3) The pharmacokinetic profile of Compound 100 was investigated in male Sprague-Dawley rats compared with that of non-deuterated D-serine. […] Plasma was collected and analyzed for Compound 100 and non-deuterated D-Serine. Additional blood was collected and analyzed for the full clinical chemistry profile.

[7] = Pharmacokinetic profile of Compound 100 and non-deuterated D-serine after 150 mg/kg PO doses (Example 3); format: in vivo, male Sprague-Dawley rats; settings: for AUC(0-inf) / Cmax / Tmax / concentration at 4 h / concentration at 8 h / concentration at 24 h: male, Sprague-Dawley, rat; for concentration at 4 h / concentration at 8 h / concentration at 24 h: po
Source text: as §3

[8] = Pharmacokinetics of non-deuterated D-serine after a 300 mg/kg PO dose (Example 2); format: in vivo, Male Sprague-Dawley Rats; settings: male, Sprague-Dawley, rat; for concentration at 1 h: oral, 300 mg/kg, 1 hour (in Example 2); for concentration at 1 h / concentration at 8 h: mean
Procedure: as §1

[9] = Plasma, hippocampus and cortex concentration of Compound 100 after a 30 mg/kg PO dose (Example 1); format: in vivo, male Sprague Dawley rats; settings: male, Sprague-Dawley, rat, mean
Procedure: The mean plasma, hippocampus, and cortex concentrations at 1 hour were 19200 ng/mL, 674 ng/g, and 754 ng/g, respectively. The mean plasma, hippocampus, and cortex concentrations at 6 hours were 1780 ng/mL, 1385 ng/g, and 936 ng/g, respectively.

[10] = Brain distribution of Compound 100 after a single 100 mg/kg PO dose (Example 10); format: in vivo, male Sprague-Dawley rats; settings: male, Sprague-Dawley, rat, mean
Procedure: The distribution profile of Compound 100 was investigated in male Sprague-Dawley rats. […] At 24 hours after dosing, tissues from perfused brain and plasma were collected and analyzed by LC-MS.

[11] = Cortex versus plasma half-life of Compound 100 after 4 days of 100 mg/kg PO dosing (Example 11); format: in vivo, male Sprague-Dawley rats; settings: male, Sprague-Dawley, rat, 100 mg/kg PO once per day for 4 days
Procedure: After 4 days, tissues from perfused brain and plasma were collected and analyzed by LC-MS at 24 hours (group 1), 72 hours (group 2) and 120 hours (group 3) after dosing.

[12] = dose escalation 150 mg/kg to 750 mg/kg
[13] = serum, D-serine at 24 hr, Compound 100 at 4, 8, and 24 hours
[14] = cortex, read-out: Cortex concentration
[15] = hippocampus, read-out: Hippocampus concentration
[16] = plasma, read-out: Plasma concentration
[17] = cortex, 150 mg/kg, mean, read-out: Cortex concentration
[18] = hippocampus, 150 mg/kg, mean, read-out: Hippocampus concentration
[19] = plasma, 150 mg/kg, mean, read-out: Plasma concentration

- Tmax ([2]; male, Sprague-Dawley, rat, po, 30 mg/kg, 30 mg/kg PO): 30 min
- Cmax ([2]; male, Sprague-Dawley, rat, po, 30 mg/kg, 30 mg/kg PO, read-out: Cmax): 24300 ng/mL
- Tmax ([2]; male, Sprague-Dawley, rat, po, 75 mg/kg, 75 mg/kg PO): 30 min
- Cmax ([2]; male, Sprague-Dawley, rat, po, 75 mg/kg, 75 mg/kg PO, read-out: Cmax): 54300 ng/mL
- Tmax ([2]; male, Sprague-Dawley, rat, po, 100 mg/kg, 100 mg/kg PO): 30 min
- Cmax ([2]; male, Sprague-Dawley, rat, po, 100 mg/kg, 100 mg/kg PO, read-out: Cmax): 96100 ng/mL
- Tmax ([2]; male, Sprague-Dawley, rat, po, 150 mg/kg, 150 mg/kg PO): 18 min
- Cmax ([2]; male, Sprague-Dawley, rat, po, 150 mg/kg, 150 mg/kg PO, read-out: Cmax): 180000 ng/mL
- Tmax ([2]; male, Sprague-Dawley, rat, po, 300 mg/kg, 300 mg/kg PO): 30 min
- Cmax ([2]; male, Sprague-Dawley, rat, po, 300 mg/kg, 300 mg/kg PO, read-out: Cmax): 216000 ng/mL
- Tmax ([2]; male, Sprague-Dawley, rat, po, 300 mg/kg, all doses 30, 75, 100, 150, and 300 mg/kg PO): 18 to 30 min
- AUC(0-inf) ([2]; male, Sprague-Dawley, rat, 30 mg/kg PO): 50.6 µg·h/mL
- AUC(0-inf) ([2]; male, Sprague-Dawley, rat, 75 mg/kg PO): 148 µg·h/mL
- AUC(0-inf) ([2]; male, Sprague-Dawley, rat, 100 mg/kg PO): 246 µg·h/mL
- AUC(0-inf) ([2]; male, Sprague-Dawley, rat, 150 mg/kg PO): 349 µg·h/mL
- AUC(0-inf) ([2]; male, Sprague-Dawley, rat, 300 mg/kg PO): 911 µg·h/mL
- Cmax ([2]; 300 mg/kg PO, 300 mg/kg): 261000 (32.3%) ng/mL
- AUC(0-inf) [3]: 13.2 µg·h/mL
- Cmax [3]: 8780 ng/mL
- Tmax [3]: 25 min
- half-life [3]: 106 min
- activity at the NMDA receptor (peak current and steady state current) [4]: indistinguishable
- AUC(0-inf) ([7]; plasma): 349 µg·h/mL
- Cmax ([7]; plasma): 180000 ng/mL
- Tmax ([7]; plasma): 20 min
- concentration at 1 h [8, 14]: 754 ng/g
- concentration at 8 h ([8]; cortex, 300 mg/kg PO, read-out: Cortex concentration): 11900 ng/g
- concentration at 1 h [8, 15]: 674 ng/g
- concentration at 8 h ([8]; hippocampus, 300 mg/kg PO, read-out: Hippocampus concentration): 17700 ng/g
- concentration at 1 h [8, 16]: 19200 ng/mL
- concentration at 8 h ([8]; plasma, 300 mg/kg PO, endogenous level subtracted, read-out: Plasma concentration): 11200 ng/mL
- AUC(0-inf) ([8]; plasma, 300 mg/kg PO): 500 µg·h/mL
- Cmax ([8]; plasma, 300 mg/kg PO): 268000 ng/mL
- Tmax ([8]; plasma, 300 mg/kg PO): 30 min
- half-life ([8]; plasma, 300 mg/kg PO): 218 min
SMILES: N[C@H](CO)C(=O)O [Non-deuterated D-Serine, D-serine]
- Blood urea nitrogen level (Male Sprague-Dawley Rats [1]): elevated
- creatinine level (Male Sprague-Dawley Rats [1]): elevated
- glucose in urine (Male Sprague-Dawley Rats [1]): presence of glucose was observed
- changes in BUN or creatinine (rats): increasingly elevated levels
- gross signs of nephrotoxicity (rats; [12]): observed
- creatine level (Male Sprague-Dawley Rats [5]): Elevated levels
- gamma glutamyl transferase (GGT) level (Male Sprague-Dawley Rats [5]): Elevated levels
- urea nitrogen level (Male Sprague-Dawley Rats [5]): Elevated levels
- levels of biomarkers of nephrotoxicity (Male Sprague-Dawley Rats [6]): caused an increase
- blood urea nitrogen (BUN) level (Male Sprague-Dawley Rats [6]; serum, D-serine at 8 hr and 24 hr, Compound 100 at 4, 8, and 24 hours): Elevated levels
- creatinine level (Male Sprague-Dawley Rats [6]; [13]): Elevated levels
- gamma glutamyl transferase (GGT) level (Male Sprague-Dawley Rats [6]; [13]): Elevated levels

- concentration at 1 h [9, 14]: 754 ng/g
- concentration at 6 h [9, 14]: 936 ng/g
- concentration at 1 h [9, 15]: 674 ng/g
- concentration at 6 h [9, 15]: 1380 ng/g
- concentration at 1 h [9, 16]: 19200 ng/mL
- concentration at 6 h [9, 16]: 1780 ng/mL
- concentration at 24 h ([10]; brain stem, perfused brain, read-out: brain stem concentration): 721 ng/g
- concentration at 24 h ([10]; cerebellum, perfused brain, read-out: cerebellum concentration): 290 ng/g
- concentration at 24 h ([10]; cortex, perfused brain, read-out: cortex concentration): 4660 ng/g
- concentration at 24 h ([10]; plasma, read-out: plasma concentration): 880 ng/mL
- AUC(0-inf) [3]: 21.5 µg·h/mL
- Cmax [3]: 11400 ng/mL
- Tmax [3]: 25 min
- half-life [3]: 160 min
- activity at the NMDA receptor (peak current and steady state current) [4]: indistinguishable
- concentration at 4 h [7, 17]: 5070 ng/g
- concentration at 8 h [7, 17]: 4040 ng/g
- concentration at 24 h ([7]; cortex, 150 mg/kg, mean, 24 hr, read-out: Cortex concentration): 2420 ng/g
- concentration at 4 h [7, 18]: 6160 ng/g
- concentration at 8 h [7, 18]: 4340 ng/g
- concentration at 24 h ([7]; hippocampus, 150 mg/kg, mean, 24 hr, read-out: Hippocampus concentration): 4200 ng/g
- AUC(0-inf) ([7]; plasma): 383 µg·h/mL
- Cmax ([7]; plasma): 186000 ng/mL
- Tmax ([7]; plasma): 40 min
- concentration at 4 h [7, 19]: 23300 ng/mL
- concentration at 8 h [7, 19]: 2040 ng/mL
- concentration at 24 h ([7]; plasma, 150 mg/kg, mean, 24 hr, read-out: Plasma concentration): 711 ng/mL
- Hippocampus concentration ([7]; mean, 24 hr, 150 mg/kg): 4220 ng/g
- half-life ([11]; cortex, read-out: half-life (T1/2) in the cortex (converted)): ~48 h
- half-life ([11]; plasma, read-out: plasma T1/2): < 12 h
SMILES: [2H][C@@](N)(CO)C(=O)O [Compound 100, (2R)-2-amino-2-deutero-3-hydroxy-propanoic acid]
- changes in BUN or creatinine (rats): minimal changes
- exposure as measured by AUC and Cmax, versus non-deuterated D-serine (rats; [12]): greater
- gross signs of nephrotoxicity (rats; [12]): not
- levels of biomarkers of nephrotoxicity (Male Sprague-Dawley Rats [6]): did not increase

— US20200368193A1 (Concert Pharmaceuticals, Inc., priority 2017, published 2020)
